Reference: US9834558B2, “Substituted bridged urea analogs as sirtuin modulators” (GLAXOSMITHKLINE LLC, priority 2013, dated 2017)
Where two headings read alike, the source gives them in different places.

Target: T1, SIRT1 (Homo sapiens, UniProt Q96EB6)
T1 sequence (Q96EB6 1-747): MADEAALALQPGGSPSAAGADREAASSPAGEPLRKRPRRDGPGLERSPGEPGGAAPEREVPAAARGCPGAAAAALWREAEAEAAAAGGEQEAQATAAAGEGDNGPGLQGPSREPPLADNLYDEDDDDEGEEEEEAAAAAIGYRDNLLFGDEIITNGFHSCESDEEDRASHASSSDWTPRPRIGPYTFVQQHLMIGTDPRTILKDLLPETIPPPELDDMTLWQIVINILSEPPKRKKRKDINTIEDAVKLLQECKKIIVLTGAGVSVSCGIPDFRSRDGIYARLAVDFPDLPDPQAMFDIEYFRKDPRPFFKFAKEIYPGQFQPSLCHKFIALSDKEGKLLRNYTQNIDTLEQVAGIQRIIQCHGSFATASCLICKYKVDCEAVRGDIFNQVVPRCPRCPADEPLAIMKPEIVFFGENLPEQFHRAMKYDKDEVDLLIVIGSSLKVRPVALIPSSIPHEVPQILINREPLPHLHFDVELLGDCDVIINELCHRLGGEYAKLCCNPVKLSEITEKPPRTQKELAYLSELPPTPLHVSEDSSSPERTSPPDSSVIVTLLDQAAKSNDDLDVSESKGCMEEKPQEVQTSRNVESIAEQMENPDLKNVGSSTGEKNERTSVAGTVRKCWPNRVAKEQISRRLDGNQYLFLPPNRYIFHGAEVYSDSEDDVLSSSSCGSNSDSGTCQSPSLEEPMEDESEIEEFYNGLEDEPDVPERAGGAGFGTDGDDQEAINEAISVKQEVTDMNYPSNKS
Assay: Trp mass spectrometry assay of SIRT1 activation
Format: biochemical
Settings: for TRP Activity (EC1.5): EC1.5 = concentration that results in 150% activation of SIRT1
Description: Mass spectrometry based assays were used to identify modulators of SIRT1 activity. […] The peptide was labeled with the fluorophore STMR (excitation 540 nm/emission 580 nm) at the C-terminus. The sequence of the peptide substrate was based on p53 with several modifications. In addition, the methionine residue naturally present in the sequence was replaced with the norleucine because the methionine may be susceptible to oxidation during synthesis and purification. The Trp based assay utilized a peptide having an amino acid residues as follows: Ac-R-H-K-K(Ac)-W-NH2 (SEQ ID NO: 2).
The Trp mass spectrometry assay was conducted as follows. 0.5 μM peptide substrate and 120 μM βNAD^+ were incubated with 10 nM SIRT1 for 25 minutes at 25° C. in a reaction buffer (50 mM HEPES pH 7.5, […], 1 mM DTT, 0.05% BSA). The SIRT1 protein was obtained by cloning the SirT1 gene into a T7-promoter containing vector, which was then expressed in BL21(DE3) bacterial cells and purified as described in further detail below. Test compound was added at varying concentrations to this reaction mixture and the resulting reactions were monitored. After the 25 minute incubation with SIRT1, 10 μL of 10% formic acid was added to stop the reaction. The resulting reactions were sealed and frozen for later mass spec analysis. The relative SIRT1 activity was then determined by measuring the amount of O-acetyl-ADP-ribose (OAADPR) formed (or, alternatively, the amount of deacetylated Trp peptide generated) by the NAD-dependent sirtuin deacetylation reaction in the presence of varying concentrations of the test compound versus control reactions lacking the test compound. The degree to which the test agent activated deacetylation by SIRT1 was expressed as EC1.5 (i.e., the concentration of compound required to increase SIRT1 activity by 50% over the control lacking test compound), and Percent Maximum Activation (i.e., the maximum activity relative to control (100%) obtained for the test compound).
This time point was the same as that used for test compounds and, within the linear range, the endpoint represents a change in velocity.
For the above assay, SIRT1 protein was expressed and purified as follows. The SirT1 gene was cloned into a T7-promoter containing vector and transformed into BL21(DE3). The protein was expressed by induction with 1 mM IPTG as an N-terminal His-tag fusion protein at 18° C. overnight and harvested at 30,000×g. Cells were lysed with lysozyme in lysis buffer (50 mM Tris-HCl, 2 mM Tris[2-carboxyethyl]phosphine (TCEP), 10 μM ZnCl2, 200 mM NaCl) and further treated with sonication for 10 min for complete lysis. The protein was purified over a Ni-NTA column (Amersham) and fractions containing pure protein were pooled, concentrated and run over a sizing column (Sephadex S200 26/60 global). The peak containing soluble protein was collected and run on an Ion-exchange column (MonoQ). Gradient elution (200 mM-500 mM NaCl) yielded pure protein. This protein was concentrated and dialyzed against dialysis buffer (20 mM Tris-HCl, 2 mM TCEP) overnight. The protein was aliquoted and frozen at −80° C. until further use.
“NT” means not tested; “ND” means not determinable.

[1] = Trp mass spectrometry assay, EC1.5 = concentration of test compound that results in 150% activation of SIRT1
[2] = Trp mass spectrometry assay, concentration of test compound giving 150% activation of SIRT1
[3] = concentration giving 150% activation of SIRT1, Trp peptide substrate
[4] = Trp peptide assay, maximum activity relative to control (100%), read-out: TRP MAX RESP (percent maximum fold activation)
[5] = Trp mass spectrometry assay, percent maximum fold activation of SIRT1, read-out: Tryp % Fold Act
[6] = percent maximum fold activation of SIRT1, Trp peptide substrate, read-out: Tryp % Fold Act

## O=C(Nc1ccccn1)N1c2nc(-c3cccc(C(F)(F)F)c3)ccc2N2C[C@@H](O)[C@H]1C2 [Example 601]
[1]
  Tryp AVG EC1.5 (μM): A (A (EC1.5<1 μM))

## COc1cc(NC(=O)N2c3nc(-c4cccc(Cl)c4)ccc3N3CCC2CC3)nc(OC)n1 [Example 523]
[1]
  Tryp AVG EC1.5 (μM): A (A (EC1.5<1 μM))

## COc1cc(NC(=O)N2c3nc(-c4cccc(N(C)C)c4)ccc3N3CCC[C@H]2C3)ncn1 [Example 385]
[2]
  Tryp AVG EC1.5 (μM): A (A (EC1.5<1 μM))

## O=C(Nc1cccnc1)N1c2nc(-c3cccc(C(F)(F)F)c3)ccc2N2C[C@@H](O)[C@H]1C2 [Example 663]
[3]
  Tryp AVG EC1.5 (μM): A (A (EC1.5<1 μM))

## Cc1cc(-c2ccc3c(n2)N(C(=O)NCc2cccnc2)[C@H]2CCN3C2)ccn1 [(9S)-5-(2-methylpyridin-4-yl)-N-(pyridin-3-ylmethyl)-1,6,8-triazatricyclo[7.2.1.0 {2,7}]dodeca-2(7),3,5-triene-8-carboxamide]
Trp peptide assay
  TRP Activity (EC1.5): B (B (EC1.5 1-25 μM))
[4]
  Emax: > 150%

## CCc1cnc(NC(=O)N2c3nc(-c4ccc(C)nc4)ccc3N3CC[C@H]2C3)cn1 [(9S)-N-(5-ethylpyrazin-2-yl)-5-(6-methylpyridin-3-yl)-1,6,8-triazatricyclo[7.2.1.0^{2,7}]dodeca-2,4,6-triene-8-carboxamide]
Trp peptide assay
  TRP Activity (EC1.5): B (B (EC1.5 1-25 μM))
[4]
  Emax: > 150%

## O=C(Nc1cccc(-c2cnco2)c1)N1c2nc(-c3cccc(Cl)c3)ccc2N2C[C@@H](O)[C@H]1C2 [Example 683]
[3]
  Tryp AVG EC1.5 (μM): A (A (EC1.5<1 μM))

## O=C(Nc1cnccn1)N1c2nc(-c3cccnc3)ccc2N2CCC[C@H]1C2 [Example 454]
[1]
  Tryp AVG EC1.5 (μM): B (B (EC1.5 1-25 μM))

## O=C(Nc1cccc(-c2cnco2)n1)N1c2nc(-c3cccc(C(F)(F)F)c3)ccc2N2CCC1CC2 [Example 596]
[1]
  Tryp AVG EC1.5 (μM): A (A (EC1.5<1 μM))

## O=C(Nc1cccc(-n2cncn2)c1)N1c2nc(-c3cccc(C(F)(F)F)c3)ccc2N2CC[C@H]1C2 [Example 581]
[1]
  Tryp AVG EC1.5 (μM): A (A (EC1.5<1 μM))

## Cn1cc(-c2ccc3c(n2)N(C(=O)Nc2cccnc2)[C@H]2CCN3C2)ccc1=O [(9S)-5-(1-methyl-6-oxo-1,6-dihydropyridin-3-yl)-N-(pyridin-3-yl)-1,6,8-triazatricyclo[7.2.1.0^2,7]dodeca-2(7),3,5-triene-8-carboxamide]
Trp peptide assay
  TRP Activity (EC1.5): B (B (EC1.5 1-25 μM))
[4]
  Emax: > 150%

## Cc1cc(-c2ccc3c(n2)N(C(=O)Nc2nc(C)c(C)s2)[C@H]2CCN3C2)ccn1 [Example 481]
[1]
  Tryp AVG EC1.5 (μM): A (A (EC1.5<1 μM))

## O=C(Nc1ccc(-n2cncn2)cc1)N1c2nc(-c3cncc(C(F)(F)F)c3)ccc2N2CC[C@H]1C2 [Example 580]
[1]
  Tryp AVG EC1.5 (μM): A (A (EC1.5<1 μM))
[5]
  Emax: > 150%

## O=C(Nc1ccnc(OC[C@H](O)CO)n1)N1c2nc(-c3cccc(C(F)(F)F)c3)ccc2N2CC[C@H]1C2 [Example 818]
[3]
  Tryp AVG EC1.5 (μM): A (A (EC1.5<1 μM))
[6]
  Emax: > 150%

## COc1ccc(C)nc1NC(=O)N1c2nc(-c3cccc(C(F)(F)F)c3)ccc2N2CC[C@H]1C2 [Example 77]
Trp peptide substrate, concentration giving 150% activation of SIRT1
  Tryp AVG EC1.5 (μM): B (B (EC1.5 1-25 μM))

## NCCCCCC(=O)NCc1cccc(NC(=O)N2c3nc(-c4cccc(C(F)(F)F)c4)ccc3N3CC[C@H]2C3)c1 [Example 758]
[3]
  Tryp AVG EC1.5 (μM): A (A (EC1.5<1 μM))

## Cc1cc(-c2ccc3c(n2)N(C(=O)N2CCCC2)[C@H]2CCN3C2)ccn1 [(9S)-5-(2-methylpyridin-4-yl)-8-[(pyrrolidin-1-yl)carbonyl]-1,6,8-triazatricyclo[7.2.1.0 {2,7}]dodeca-2,4,6-triene]
Trp peptide assay
  TRP Activity (EC1.5): C (C (EC1.5>25 μM))
[4]
  Emax: < 150%

## CC1(C)CN(c2ccc3c(n2)N(C(=O)Nc2cnccn2)[C@H]2CCN3C2)CCO1 [(9S)-5-(2,2-dimethylmorpholin-4-yl)-N-(pyrazin-2-yl)-1,6,8-triazatricyclo[7.2.1.0 {2,7}]dodeca-2(7),3,5-triene-8-carboxamide]
Trp peptide assay
  TRP Activity (EC1.5): A (A (EC1.5<1 μM))
[4]
  Emax: > 150%

## O=C(Nc1cnccn1)N1c2nc(-c3cnc(C4CC4)c(C(F)(F)F)c3)ccc2N2CC[C@H]1C2 [(9S)-5-[6-cyclopropyl-5-(trifluoromethyl)pyridin-3-yl]-N-(pyrazin-2-yl)-1,6,8-triazatricyclo[7.2.1.0 {2,7}]dodeca-2,4,6-triene-8-carboxamide]
Trp peptide assay
  TRP Activity (EC1.5): A (A (EC1.5<1 μM))
[4]
  Emax: > 150%

## O=C(NCCc1cccnc1)N1c2nc(-c3cccc(C(F)(F)F)c3)ccc2N2CC[C@H]1C2 [Example 615]
[1]
  Tryp AVG EC1.5 (μM): B (B (EC1.5 1-25 μM))

## CC(C)(C)OC(=O)NCCCc1cc(NC(=O)N2c3nc(-c4cccc(C(F)(F)F)c4)ccc3N3CCC[C@H]2C3)cc(-c2cnco2)c1 [Example 754]
[3]
  Tryp AVG EC1.5 (μM): A (A (EC1.5<1 μM))
[6]
  Emax: > 150%

## CN(C)c1cccc(-c2ccc3c(n2)N(C(=O)Nc2ccc(F)cn2)[C@H]2CCCN3C2)c1 [Example 384]
[2]
  Tryp AVG EC1.5 (μM): B (B (EC1.5 1-25 μM))

## COc1cc(NC(=O)N2c3nc(-c4ccnc(F)c4)ccc3N3CC[C@H]2C3)ncn1 [Example 358]
[2]
  Tryp AVG EC1.5 (μM): C (C (EC1.5>25 μM))

## O=C(Nc1cncc(F)c1)N1c2nc(-c3cccc(C(F)(F)F)c3)ccc2S(=O)(=O)N2CC[C@H]1C2 [Example 460]
[1]
  Tryp AVG EC1.5 (μM): B (B (EC1.5 1-25 μM))

## Cc1cc(-c2ccc3c(n2)N(C(=O)Nc2cncc(C4CC4)n2)[C@H]2CCN3C2)ccn1 [(9S)-N-(6-cyclopropylpyrazin-2-yl)-5-(2-methylpyridin-4-yl)-1,6,8-triazatricyclo[7.2.1.0 {2,7}]dodeca-2(7),3,5-triene-8-carboxamide]
Trp peptide assay
  TRP Activity (EC1.5): A (A (EC1.5<1 μM))
[4]
  Emax: > 150%

## O=C(Nc1cncc(F)c1)N1c2nc(-c3cccc(C(F)(F)F)c3)ccc2N2C[C@@H](O)[C@H]1C2 [Example 630]
[3]
  Tryp AVG EC1.5 (μM): A (A (EC1.5<1 μM))

## O=C(Nc1cnccn1)N1c2nc(-c3cc(C(F)(F)F)cc(C(F)(F)F)c3)ccc2N2CC[C@H]1C2 [Example 363]
[2]
  Tryp AVG EC1.5 (μM): B (B (EC1.5 1-25 μM))
[5]
  Emax: > 150%
